From patent US8957047B2, “GLA monotherapy for use in cancer treatment” (Immune Design Corp., priority 2013, dated 2015)

What was measured:
B16 melanoma cells = assay: Murine B16 melanoma model, subcutaneous inoculation (Example 1); format: in vivo, mice; details: 5 μg GLA-SE i.m. on Day 0, Day 9 and Day 14; relative to saline; FIG. 2
Method: The B16 murine melanoma model is an accepted animal model for both solid tumor formation as well as metastasis (see e.g., Curr Protoc Immunol. 2001 May; CHAPTER 20: Unit-20.1. doi:10.1002/0471142735.im2001s39). In this study, mice were inoculated subcutaneously with 3×10^5 B16 cells on Day minus 9 (n=10 per group). Mice were treated with either saline or 5 μg GLA-SE i.m. on Day 0, Day 9 and Day 14.

B16F10 cells [1] = assay: B16F10 footpad model, optimal time to begin GLA administration (Example 5); format: in vivo, C57BL/6 mice; details: 5 μg GLA-SE/2% SE i.t. starting Day 4 post-tumor injection, every 3-4 days; FIG. 7A
Method: To determine the optimal time to begin GLA administration, female C57BL/6 mice (n=5 per group) were inoculated with 5×10^5 B16F10 cells, subcutaneously in the right footpad on Day 0. Mice were given intratumoral (i.t.) administrations of 5 μg GLA-SE/2% SE (or 2% SE vehicle control) on Day 4, Day 9, or Day 14, and every 3-4 days thereafter until the end of study.

B16F10 cells [2] = assay: B16F10 footpad model, GLA plus checkpoint inhibitor (Example 5); format: in vivo, C57B1/6 mice; details: GLA alone: 5 μg GLA-SE/2% SE i.t. from Day 4 every 3-4 days; FIG. 7B
Method: Mice were given i.t. administrations of 5 μg GLA-SE/2% SE (or 2% SE vehicle control) plus intraperitoneal (i.p.) administrations of a CPI [anti-PDL1, anti-PD1, anti-CTLA4 (clone 9H10), anti-CTLA4 (clone 9D9), or LTF2 control antibody] at 100 μg starting on Day 4 and every 3-4 days thereafter until the end of study.

B16F10 cells [3] = assay: B16F10 footpad model, GLA i.t. plus anti-CD40 i.p. (Example 6); format: in vivo, C57B1/6 mice; details: GLA alone: 5 μg GLA-SE/2% SE i.t. from Day 4 every 3-4 days; FIG. 8A
Method: Mice were given i.t. administrations of 5 μg GLA-SE/2% SE (or 2% SE vehicle control) plus i.p. administrations of anti-CD40 (or 2A3 control antibody) at 100 μg, starting on Day 4 and every 3-4 days thereafter until the end of study (FIG. 8A).

B16F10 cells [4] = assay: B16F10 model, GLA i.t. plus anti-CD40 i.t., suboptimal doses (Example 6); format: in vivo, mice; details: GLA alone: 2 μg GLA-SE/2% SE i.t. on Day 8 and 15 post-tumor injection; FIG. 8B
Method: To determine whether anti-CD40 exerted anti-tumor effects in the tumor microenvironment, tumor-bearing mice were given i.t. administrations of 2 μg GLA-SE/2% SE (or 2% SE vehicle control) on Day 8 and 15 post-tumor injection and i.t. administrations of 50 μg anti-CD40 (or 2A3 control antibody) on Day 5 and 12 post-tumor injection (FIG. 8B). Suboptimal doses for GLA and anti-CD40 were given to avoid masking of a possible synergistic effect of the combination.

CCCCCCCCCCCCCC(=O)O[C@H](CCCCCCCCCCC)CC(=O)O[C@@H]1[C@@H](NC(=O)C[C@H](CCCCCCCCCCC)OC(=O)CCCCCCCCCCCCC)[C@H](OC[C@H]2O[C@H](O)[C@H](NC(=O)C[C@H](O)CCCCCCCCCCC)[C@@H](OC(=O)C[C@H](O)CCCCCCCCCCC)[C@@H]2O)O[C@H](CO)[C@H]1OP(=O)(O)O [GLA, glucopyranosyl lipid A]
percent survival (B16 melanoma cells): improved survival rate | B16F10 tumor growth (B16F10 cells [1]): delayed B16F10 tumor growth | B16F10 tumor growth (B16F10 cells [2]): delayed B16F10 tumor growth | B16F10 tumor growth (B16F10 cells [3]): delayed B16F10 tumor growth | tumor growth (B16F10 cells [4]): delayed tumor growth
